Patent US12577270B2, “2′,3′-diacetyluridine substituted with acetoacetyl at the 5′ position” (PHARMA CINQ, LLC, priority 2020, dated 2026)
Like-named read-outs stand apart in the source and are kept apart here.

What was measured:
[1] = test system: mice receiving 60 mg/kg/day 3-nitropropionic acid (progressive lethal mitochondrial energy failure); test: Protection against mortality caused by 3-nitropropionic acid (Example 6, 11 day study); type: in vivo, Female CD-1 mice; details: for Median Survival / % Survival: 3-NP 60 mg/kg/day ip, UTA 1000 mg/kg b.i.d. or AcAcDAU 1113.5 mg/kg b.i.d. oral; for survival time versus vehicle alone: UTA 1000 mg/kg or AcAcDAU 1113.5 mg/kg b.i.d.; for % Survival: end of 11 day study
Experimental: 5′-O-acetoacetyl-2′,3′-di-O-acetyluridine (AcAcDAU) delivers both uridine and acetoacetate (and beta-hydroxybutyrate [BHB] derived from acetoacetate) into the circulation after oral administration. A study was designed to compare relative efficacy of UTA versus AcAcDAU in a model of progressive lethal mitochondrial energy failure. Mitochondrial dysfunction was produced by daily administration of 3-nitropropionic acid (3-NP; 60 mg/kg/day) by intraperitoneal injection. 3-NP is an irreversible inhibitor of succinate dehydrogenase (Complex II of the mitochondrial electron transport chain). Daily dosing with 3-NP results in progressive diminution of mitochondrial capacity to maintain ATP production, eventually resulting in mortality from both neurodegeneration and cardiomyopathy.
Female CD-1 mice at approximately 16 weeks of age were divided into weight-matched groups of 10 mice each. All mice received daily intraperitoneal injections of 3-NP (60 mg/kg) in a volume of 0.01 ml per gram of body weight.
In addition to daily injections of 3-NP, the three groups of mice received 1) Vehicle; 2) UTA; or 3) AcAcDAU. This experiment used the AcAcDAU from Example 2. These treatments were administered orally, by gavage, in a volume of 0.02 ml per gram of body weight.
• 1. Vehicle Control (0.75% HPMC; hydroxypropylmethylcellulose) • 2. Uridine triacetate 1000 mg/kg BID (suspended in 0.75% HPMC) • 3. AcAcDAU 1113.5 mg/kg (molar equivalent to 1000 mg/kg UTA) BID (dissolved in 0.75% HPMC)
(§1) Body weights were recorded each day to adjust drug doses as mice lost weight during repeated treatment with 3-NP.
Survival times (median survival; the time point at which 50% of animals in a group had died) and percent survival at the end of the 11 day study were used to quantify and compare protective effects of the test agents.

[2] = test system: mice receiving 60 mg/kg/day 3-nitropropionic acid (progressive mitochondrial failure); test: Protection against mortality due to 3-nitropropionic acid, higher doses (Example 7, 10 day study); type: in vivo; details: for survival time versus vehicle alone: UTA 2000 mg/kg or AcAcDAU 2227 mg/kg b.i.d.; for % Survival: end of 10 day study, 3-NP 60 mg/kg/day ip, UTA 2000 mg/kg b.i.d. or AcAcDAU 2227 mg/kg b.i.d. oral
Experimental: In this example the effect of higher doses of UTA (2000 mg/kg/dose) versus equimolar AcAcDAU (2227 mg/kg/dose) were compared in the same model system.
• 1. Vehicle Control (0.75% HPMC; hydroxypropylmethylcellulose) • 2. Uridine triacetate 2000 mg/kg BID (suspended in 0.75% HPMC)
AcAcDAU 2227 mg/kg (molar equivalent to 2000 mg/kg UTA) BID (dissolved in 0.75% HPMC). This experiment used the AcAcDAU from Example 2. The treatment schedule was as follows:
as §1
Percent survival of mice in each group of 10 mice at the end of the 10 day study were used to quantify and compare protective effects of the test agents.

[3] = Plasma uridine, uracil and beta-hydroxybutyrate in mice after oral administration of AcAcDAU (Example 5); type: in vivo, Female CD-1 mice; details: 2350 mg/Kg oral, 15-120 min, result in words
Excerpt: An important feature of 5′-O-(acetoacetyl)-2′,3′-di-O-acetyluridine (AcAcDAU) is that it yields simultaneous or concurrent delivery of both uridine and acetoacetate via a single drug molecule. Acetoacetate in plasma is in equilibrium with beta-hydroxybutyrate (BHB) mirroring free NADH/NAD+ ratios in hepatic mitochondria, and heavily favoring BHB as the more prevalent of the two ketone bodies under normal physiological conditions. Moreover, BHB is stable after blood sampling and processing, whereas acetoacetate is labile. Therefore, plasma BHB was measured along with plasma uridine in mice receiving oral AcAcDAU.
Chemical(s): HPMC (Hydroxypropyl) methyl cellulose (SIGMA-Aldrich: cat #H3785, CAS 9004-65-3), 5′-O-(acetoacetyl)-2′,3′-di-O-acetyluridine (AcAcDAU; lot #432168B). This experiment used the AcAcDAU from Example 2.
(§2) Vehicle: Aqueous HPMC was used as a vehicle for oral administration of the uridine derivatives.
(§3) Dosing Formulation: UTA and other uridine derivatives were prepared in 0.75% HPMC. AcAcDAU was added to 0.75% HPMC and homogenized to eliminate clumps. The suspensions were made up to the desired volume and concentration and sonicated to disaggregate any small leftover clumps into fine particles. Suspensions were stored at 4° C. until use. Suspensions were used within 24 hrs of preparation.
Dosing: Mice received a dose of 2350 mg/Kg AcAcDAU gavaged at 0.02 ml/g body weight. Control mice received only the 0.75% HPMC vehicle
General Experimental Design: The general layout for the experiment involved gavaging mice with AcAcDAU and obtaining blood samples at several time points thereafter (see table below for details). The experiment included a group with 2 mice gavaged with HPMC only and bled at 60 and 120 min for determination of baseline plasma uridine.
Mice received 0.02 ml/g bodyweight of a suspension (0.75% hydroxypropylmethylcellulose in water) with a concentration of AcAcDAU of 117 mg/ml for a dose of 2,350 mg/Kg body weight. […]

[4] = Plasma uridine and [uridine+uracil] in mice after oral administration of uridine prodrugs (Example 4); type: in vivo, Female CD-1 mice; details: for systemic uridine delivery after oral administration: oral gavage, dose equimolar to 600 mg/Kg UTA, result in words
Excerpt: Chemical(s): HPMC (Hydroxypropyl)methyl cellulose (SIGMA-Aldrich: cat #H3785, CAS 9004-65-3); uridine triacetate (2′,3′,5′-tri-O-acetyluridine): UTA, Item Code D000156, Lot #Q000001095, made by Almac Sciences; 2′,3′,5′-tri-O-(acetoacetyl)uridine: Tri-AcAcU; 5′-O-(acetoacetyl)-2′,3′-di-O-acetyluridine: AcAcDAU; 2′,3′-di-O-acetyl-5′-O-heptanoyluridine: DA-HU. (Note: the AcAcDAU used in this experiment was the mixture of 9.4 parts 5′-O-(acetoacetyl)-2′,3′-di-O-acetyluridine and 1 part a combination of 5′-O-(acetoacetyl)-2′-O-acetyl-3′-O-formyluridine and 5′-O-(acetoacetyl)-3′-O-acetyl-2′-O-formyluridine from Example 1 above.)
as §2
as §3, with “UTA and other uridine derivatives were” for “AcAcDAU was”, “suspension” for “suspensions”
Dosing: Mice received a dose of 600 mg/Kg UTA gavaged at 0.02 ml/g body weight. Other uridine derivatives were dosed in the same manner at concentrations containing amounts of uridine equimolar to UTA.
Animals: Female CD-1 mice.
The general initial layout for the experiment involved gavaging groups of 6 mice with uridine derivatives and obtaining blood samples at several times points thereafter (3 mice were bled for 2 time points (15 and 60 minutes), and another 3 mice were bled for the other 2 time points (30 and 120 minutes). Each experiment included an HPMC (vehicle only) time point with 3 mice to establish a baseline for blood uridine.
Blood samples were collected into plasma separation tubes, which were centrifuged immediately after blood collection, and aliquots of plasma were frozen for subsequent processing. Plasma was later deproteinated, and uridine and uracil were quantified by liquid chromatography using UV absorbance detection and mass spectrometry.
Delivery of uridine into the bloodstream was assessed by monitoring plasma uridine and the sum of uridine and uracil [uridine+uracil], as uracil is the first product in enzymatic degradation of uridine. Mice convert administered uridine to uracil more rapidly and extensively than do humans.

[5] = humans; cited from earlier work
[6] = mice; cited from earlier work

Row | SMILES | Median Survival [1] | survival time versus vehicle alone ([1]; result in words) | % Survival [1] | survival time versus vehicle alone ([2]; result in words) | % Survival [2] | systemic uridine delivery after oral administration [4] | also measured
1 | CC(=O)CC(=O)OC[C@H]1O[C@@H](n2ccc(=O)[nH]c2=O)[C@H](OC(C)=O)[C@@H]1OC(C)=O [AcAcDAU, 5′-O-(acetoacetyl)-2′,3′-di-O-acetyluridine] | >11 days | improved survival time | 50% (2/10) | improved survival time | 100% (10/10) | – | median survival time compared with UTA ([1]; AcAcDAU 1113.5 mg/kg b.i.d. vs equimolar UTA, result in words): longer; survival at the 10 day time point compared with equimolar UTA ([2]; AcAcDAU 2227 mg/kg b.i.d. vs UTA 2000 mg/kg b.i.d., result in words): better survival; Plasma beta-hydroxybutyrate after oral administration [3]: elevated; Plasma uracil after oral administration [3]: elevated; Plasma uridine after oral administration [3]: elevated; delivery of uridine and uridine catabolites ([uridine+uracil]) into the circulation compared with equimolar uridine triacetate ([4]; oral, equimolar to 600 mg/Kg UTA, AcAcDAU was the 9.4:1 mixture from Example 1, result in words): more
2 | CC(=O)CC(=O)OC[C@H]1O[C@@H](n2ccc(=O)[nH]c2=O)[C@H](O)[C@@H]1O [AcAcU, 5′-O-(acetoacetyl)uridine] | – | – | – | – | – | delivered little uridine | –
3 | CCCCCCC(=O)OC[C@H]1O[C@@H](n2ccc(=O)[nH]c2=O)[C@H](OC(C)=O)[C@@H]1OC(C)=O [DA-HU, 2′,3′-di-O-acetyl-5′-O-heptanoyluridine, reference compound] | – | – | – | – | – | relatively poor | –
4 | CC(=O)CC(=O)OC[C@H]1O[C@@H](n2ccc(=O)[nH]c2=O)[C@H](OC(=O)CC(C)=O)[C@@H]1OC(=O)CC(C)=O [Tri-AcAcU, 2′,3′,5′-tri-O-(acetoacetyl)uridine, reference compound] | – | – | – | – | – | relatively poor | –
5 | CC(=O)OC[C@H]1O[C@@H](n2ccc(=O)[nH]c2=O)[C@H](OC(C)=O)[C@@H]1OC(C)=O [UTA, 2′,3′,5′-tri-O-acetyluridine, reference compound] | 7 days | improved survival time | 30% (5/10) | improved survival time | 70% (7/10) | – | –
6 | O=c1ccn([C@@H]2O[C@H](CO)[C@@H](O)[C@H]2O)c(=O)[nH]1 [uridine] | – | – | – | – | – | – | bioavailability (oral delivery) [5]: approximately 7%; bioavailability (oral delivery) [6]: approximately 7%
